Read-outs that look alike come from different tables or passages of the source.
Molecular target: CFTR (Homo sapiens, UniProt P13569)
Experiment: Membrane Potential Dye, Enteroid Assay A
Format: cell-based
Conditions: for EC50: read-out: Ent. A EC50
Method: Base medium (ADF+++) consisted of Advanced DMEM/Ham's F12, 2 mM Glutamax, 10 mM HEPES, […] penicillin/streptomycin.
Bath 1 Buffer consisted of 1 mM MgCl2, 160 mM NaCl, 4.5 mM KCl, 10 mM HEPES, 10 mM Glucose, 2 mM CaCl2).
Chloride Free Buffer consisted of 1 mM Magnesium Gluconate, 2 mM Calcium Gluconate, 4.5 mM Potassium Gluconate, 160 mM Sodium Gluconate, 10 mM HEPES, 10 mM Glucose.
Bath 1 Dye Solution consisted of Bath 1 Buffer, 0.04% Pluronic F127, 20 μM Methyl Oxonol, 30 μM CaCCinh-A01, 30 μM Chicago Sky Blue.
Chloride Free Dye Solution consisted of Chloride Free Buffer, 0.04% Pluronic F127, 20 μM Methyl Oxonol, 30 μM CaCCinh-A01, 30 μM Chicago Sky Blue.
3. Enteroid Cell Harvesting and Seeding
Cells were recovered in cell recovery solution, collected by centrifugation at 650 rpm for 5 min at 4° C., resuspended in TryPLE and incubated for 5 min at 37° C. Cells were then collected by centrifugation at 650 rpm for 5 min at 4° C. and resuspended in IEMM containing 10 μM ROCK inhibitor (RI).
4. Membrane Potential Dye, Enteroid Assay A
Briefly, cells were washed 5 times in Bath 1 Buffer. Bath 1 Dye Solution was added, and the cells were incubated for 25 min at room temperature. Following dye incubation, cells were washed 3 times in Chloride Free Dye Solution. Chloride transport was initiated by addition of Chloride Free Dye Stimulation Solution and the fluorescence signal was read for 15 min. […] Chloride transport was then expressed as a percentage of the chloride transport following treatment with 3 μM N-[(6-amino-2-pyridyl)sulfonyl]-6-(3-fluoro-5-isobutoxy-phenyl)-2-[(4S)-2,2,4-trimethylpyrrolidin-1-yl]pyridine-3-carboxamide, 3 μM (R)-1-(2,2-difluorobenzo[d][1,3]dioxol-5-yl)-N-(1-(2,3-dihydroxypropyl)-6-fluoro-2-(1-hydroxy-2-methylpropan-2-yl)-1H-indol-5-yl)cyclopropanecarboxamide and 300 nM acute N-[2,4-bis(1,1-dimethylethyl)-5-hydroxyphenyl]-1,4-dihydro-4-oxoquinoline-3-carboxamide triple combination control (% Activity).

CFTR, sequence (P13569 with tags, fused parts or gaps DEL508-508): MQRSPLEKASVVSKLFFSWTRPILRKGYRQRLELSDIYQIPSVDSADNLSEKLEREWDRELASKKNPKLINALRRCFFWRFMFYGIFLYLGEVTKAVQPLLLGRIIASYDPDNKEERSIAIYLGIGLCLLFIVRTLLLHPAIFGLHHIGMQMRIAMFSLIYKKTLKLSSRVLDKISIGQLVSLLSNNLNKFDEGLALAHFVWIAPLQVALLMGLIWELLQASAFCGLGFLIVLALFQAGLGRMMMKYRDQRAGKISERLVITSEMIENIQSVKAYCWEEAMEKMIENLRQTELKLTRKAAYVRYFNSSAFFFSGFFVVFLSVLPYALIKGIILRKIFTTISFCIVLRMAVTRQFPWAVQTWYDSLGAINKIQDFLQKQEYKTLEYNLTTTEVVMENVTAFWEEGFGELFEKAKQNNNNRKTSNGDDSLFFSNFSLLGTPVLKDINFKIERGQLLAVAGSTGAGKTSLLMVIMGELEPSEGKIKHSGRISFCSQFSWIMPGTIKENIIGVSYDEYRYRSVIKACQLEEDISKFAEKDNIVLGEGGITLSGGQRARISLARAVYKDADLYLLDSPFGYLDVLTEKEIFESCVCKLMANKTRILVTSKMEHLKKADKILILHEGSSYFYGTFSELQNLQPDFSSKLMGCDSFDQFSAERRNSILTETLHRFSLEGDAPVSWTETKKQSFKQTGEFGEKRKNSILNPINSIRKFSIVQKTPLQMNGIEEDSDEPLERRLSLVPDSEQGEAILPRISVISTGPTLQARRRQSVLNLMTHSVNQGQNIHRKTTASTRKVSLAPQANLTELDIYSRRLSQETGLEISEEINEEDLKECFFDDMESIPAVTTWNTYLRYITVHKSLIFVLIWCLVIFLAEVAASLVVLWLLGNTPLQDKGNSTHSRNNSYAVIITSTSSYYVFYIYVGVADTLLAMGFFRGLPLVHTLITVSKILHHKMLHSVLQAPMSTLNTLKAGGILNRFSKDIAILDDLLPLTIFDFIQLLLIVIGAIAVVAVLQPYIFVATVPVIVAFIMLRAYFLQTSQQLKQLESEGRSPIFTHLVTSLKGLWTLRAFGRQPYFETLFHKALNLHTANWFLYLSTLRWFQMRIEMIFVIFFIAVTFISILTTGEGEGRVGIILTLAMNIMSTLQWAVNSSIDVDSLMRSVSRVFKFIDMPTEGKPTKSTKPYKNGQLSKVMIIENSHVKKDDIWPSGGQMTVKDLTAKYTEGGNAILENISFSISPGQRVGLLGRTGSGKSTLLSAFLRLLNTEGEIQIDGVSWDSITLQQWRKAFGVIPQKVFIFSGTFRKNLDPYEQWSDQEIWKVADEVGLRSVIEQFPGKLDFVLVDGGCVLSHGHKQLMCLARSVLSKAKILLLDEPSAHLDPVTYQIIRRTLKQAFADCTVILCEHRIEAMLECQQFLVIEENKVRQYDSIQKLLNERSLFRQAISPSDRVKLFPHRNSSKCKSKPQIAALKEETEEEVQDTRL

SMILES: Cc1cccc(C)c1-c1cc2nc(n1)NS(=O)(=O)c1cccc(c1)C(=O)N[C@@H](CC1CCC1)[C@@H](c1ccc(C(C)(C)C)cc1)O2 (stereo in doubt) [Compound 229]
- Ent. A Max Activity (Table 8): +++ (+++ is >60%)
- EC50 (Table 8): < 1 µM

SMILES: Cc1cccc(C)c1-c1cc2nc(n1)NS(=O)(=O)c1cccc(c1)C(=O)NC1CC(CN(CCC(C)(C)C)C1)O2 (single isomer, unassigned) [Compound 80, 5-(3,3-Dimethylbutyl)-19-(2,6-dimethylphenyl)-2-oxa-15λ^6-thia-5,8,16,18,21-pentaazatetracyclo[15.3.1.13,7.110,14]tricosa-1(20),10,12,14(22),17(21),18-hexaene-9,15,15-trione]
- Ent. A Max Activity (Enteroid Assay A): ++ (++ is 30-60%)
- EC50 (Enteroid Assay A): 1 to 3 µM

SMILES: Cc1cccc(C)c1-c1cc2nc(n1)NS(=O)(=O)c1cccc(c1)C(=O)NCC1(CCN(CCC(C)(C)C)CC1)CO2 [Compound 443]
- Ent. A Max Activity (Enteroid Assay A): ++ (++ is 30-60%)

SMILES: Cc1cccc(C)c1-c1cc2nc(n1)NS(=O)(=O)c1cccc(c1)C(=O)NC1(CCN(CCC(C)(C)C)CC1)CO2 [Compound 86, 1′-(3,3-Dimethylbutyl)-6-(2,6-dimethylphenyl)-2,2-dioxo-spiro[9-oxa-2λ^6-thia-3,5,12,19-tetrazatricyclo[12.3.1.14,8]nonadeca-1(18),4(19),5,7,14,16-hexaene-11,4′-piperidine]-13-one]
- Ent. A Max Activity (Table 9): +++ (+++ is >60%)
- EC50 (Table 9): 1 to 3 µM

SMILES: Cc1cccc(C)c1-c1cc2nc(n1)NS(=O)(=O)c1cccc(c1)C(=O)N[C@H](COCc1ccccc1)CO2 [Compound 486]
- Ent. A Max Activity (Enteroid Assay A): +++ (+++ is >600%)
- EC50 (Enteroid Assay A): 1 to 3 µM

SMILES: Cc1cccc(C)c1-c1cc2nc(n1)NS(=O)(=O)c1cccc(c1)C(=O)N[C@H](CC1(C(F)(F)F)CC1)CO2 (stereo in doubt) [Compound 289]
- EC50 (Table 8): 1 to 3 µM

SMILES: Cc1cccc(C)c1-c1cc2nc(n1)NS(=O)(=O)c1cccc(c1)C(=O)N[C@@H]1CCCCC1O2 (stereo in doubt) [Compound 487]
- Ent. A Max Activity (Enteroid Assay A): +++ (+++ is >600%)
- EC50 (Enteroid Assay A): < 1 µM

SMILES: CCC[C@H]1NC(=O)c2cccc(c2)S(=O)(=O)Nc2nc(cc(-c3c(C)cccc3C)n2)O[C@H]1c1ccc(C(C)(C)C)cc1 [Compound 226]
- Ent. A Max Activity (Table 9): +++ (+++ is >60%)
- EC50 (Table 9): < 1 µM

SMILES: Cc1cc(C(C)(C)C)ccc1C1CNC(=O)c2cccc(c2)S(=O)(=O)Nc2nc(cc(-c3c(C)cccc3C)n2)O1 (stereo not shown) [Compound 157]
- Ent. A Max Activity (Table 8): +++ (+++ is >60%)
- EC50 (Table 8): < 1 µM

SMILES: CC(C)C[C@@H]1COc2cc(-c3ccccc3)nc(n2)NS(=O)(=O)c2cccc(c2)C(=O)N1 [Compound 340]
- Ent. A Max Activity (Enteroid Assay A): ++ (++ is 30-60%)
- EC50 (Enteroid Assay A): 3 to 30 µM

SMILES: Cc1cccc(C)c1-c1cc2nc(n1)NS(=O)(=O)[C@H]1CC[C@H]1C(=O)N[C@H](CC(C)C)CO2 (single isomer, unassigned) [Compound 72]
- Ent. A Max Activity (Table 9): + (+ is <30%)

SMILES: Cc1cccc(C)c1-c1cc2nc(n1)NS(=O)(=O)c1cccc(c1)C(=O)NCC(c1ccc([Si](C)(C)C)cc1)O2 (single isomer, unassigned) [Compound 16, 6-(2,6-Dimethylphenyl)-2,2-dioxo-10-(4-trimethylsilylphenyl)-9-oxa-2λ^6-thia-3,5,12,19-tetrazatricyclo[12.3.1.14,8]nonadeca-1(18),4(19),5,7,14,16-hexaen-13-one]
- EC50 (Table 9): < 1 µM

SMILES: CC[C@@H]1COc2cc(-c3c(C)cccc3C)nc(n2)NS(=O)(=O)c2cccc(c2)C(=O)N1 [Compound 353]
- Ent. A Max Activity (Enteroid Assay A): ++ (++ is 30-60%)
- EC50 (Enteroid Assay A): 3 to 30 µM

SMILES: Cc1cccc(C)c1-c1cc2nc(n1)NS(=O)(=O)c1cccc(c1)C(=O)NCC(c1ccc(P(C)(C)=O)cc1)O2 (stereo not shown) [Compound 21, 6-(2,6-Dimethylphenyl)-10-(4-dimethylphosphorylphenyl)-2,2-dioxo-9-oxa-2λ^6-thia-3,5,12,19-tetrazatricyclo[12.3.1.14,8]nonadeca-1(18),4(19),5,7,14,16-hexaen-13-one]
- Ent. A Max Activity (Table 8): + (+ is <30%)

SMILES: CC(C)C[C@@H]1COc2cc(-c3ccnn3C(C)C)nc(n2)NS(=O)(=O)c2cccc(c2)C(=O)N1 [Compound 341]
- Ent. A Max Activity (Enteroid Assay A): ++ (++ is 30-60%)

SMILES: Cc1cccc(C)c1-c1cc2nc(n1)NS(=O)(=O)c1cc(cc(C3=CCCCC3)c1)C(=O)N[C@H](CC(C)C)CO2 [Compound 139]
- Ent. A Max Activity (Table 8): + (+ is <30%)

SMILES: CC(C)C[C@@H]1COc2cc(N3C(C)CCC3C)nc(n2)NS(=O)(=O)c2cccc(c2)C(=O)N1 (stereo partly shown) [Compound 309]
- Ent. A Max Activity (Table 8): + (+ is <30%)

SMILES: Cc1cccc(C)c1-c1cc2nc(n1)NS(=O)(=O)c1cc(cc(-c3ccc(C(C)(C)C)cc3)c1)C(=O)N[C@H](CC(C)C)CO2 [Compound 135]
- Ent. A Max Activity (Table 8): + (+ is <30%)

SMILES: Cc1cccc(C)c1-c1cc2nc(n1)NS(=O)(=O)c1cccc(c1)C(=O)NCC1(CCN(C(=O)C3(c4ccc5c(c4)CCC5)CC3)CC1)CO2 [Compound 464]
- Ent. A Max Activity (Enteroid Assay A): +++ (+++ is >600%)
- EC50 (Enteroid Assay A): 1 to 3 µM

SMILES: Cc1cccc(C)c1-c1cc2nc(n1)NS(=O)(=O)c1cccc(c1)C(=O)NC1(CCN(C3CC4(CC4)C3)CC1)CO2 [Compound 174]
- Ent. A Max Activity (Table 9): +++ (+++ is >60%)
- EC50 (Table 9): 1 to 3 µM

SMILES: Cc1cccc(C)c1-c1cc2nc(n1)NS(=O)(=O)c1cccc(c1)C(=O)N[C@@H](CC(C)C)CO2 [Compound 491]
- EC50 (Enteroid Assay A): 1 to 3 µM

SMILES: Cc1cccc(C)c1-c1cc2nc(n1)NS(=O)(=O)c1cccc(c1)C(=O)N[C@H](CC(C)C)[C@H](C)O2 [Compound 235]
- Ent. A Max Activity (Table 8): +++ (+++ is >60%)
- EC50 (Table 8): < 1 µM

SMILES: Cc1cccc(C)c1-c1cc2nc(n1)NS(=O)(=O)c1cccc(c1)C(=O)NC(C(F)(F)F)CO2 (stereo not shown) [Compound 171]
- Ent. A Max Activity (Table 8): + (+ is <30%)

SMILES: COc1cccc(C)c1-c1cc2nc(n1)NS(=O)(=O)c1cccc(c1)C(=O)N[C@H](CC(C)(C)C)CO2 [Compound 304]
- Ent. A Max Activity (Table 8): +++ (+++ is >60%)
- EC50 (Table 8): 1 to 3 µM

SMILES: Cc1cccc(C)c1-c1cc2nc(n1)NS(=O)(=O)c1cccc(c1)C(=O)NCC(CC(C)C)O2 (stereo not shown) [Compound 255]
- EC50 (Table 8): 1 to 3 µM

SMILES: Cc1cccc(C)c1-c1cc2nc(n1)NS(=O)(=O)c1cccc(c1)C(=O)NCC(c1ccc(CC(C)(C)C)cc1)O2 (stereo not shown) [Compound 267]
- Ent. A Max Activity (Table 8): +++ (+++ is >60%)
- EC50 (Table 8): < 1 µM

SMILES: Cc1cccc(C)c1-c1cc2nc(n1)NS(=O)(=O)c1cccc(c1)C(=O)NC[C@@H](c1ccc(C(C)(C)C(F)(F)F)cc1)O2 [Compound 257]
- Ent. A Max Activity (Table 9): + (+ is <30%)
- EC50 (Table 9): < 1 µM

SMILES: Cc1cccc(C)c1-c1cc2nc(n1)NS(=O)(=O)c1cccc(c1)C(=O)NCCCC(c1ccc(C(C)(C)C)cc1)O2 (stereo not shown) [Compound 54, 10-(4-tert-butylphenyl)-6-(2,6-dimethylphenyl)-2,2-dioxo-9-oxa-2λ^6-thia-3,5,14,21-tetrazatricyclo[14.3.1.14,8]henicosa-1(20),4(21),5,7,16,18-hexaen-15-one]
- Ent. A Max Activity (Table 9): +++ (+++ is >60%)
- EC50 (Table 9): < 1 µM

SMILES: Cc1cccc(C)c1-c1cc2nc(n1)NS(=O)(=O)c1cccc(c1)C(=O)N[C@@H]1CN(Cc3ccccc3)CC[C@H]1O2 [Compound 61, (3R,8R)-6-Benzyl-20-(2,6-dimethylphenyl)-2-oxa-16λ^6-thia-6,9,17,19,22-pentaazatetracyclo[16.3.1.111,15.03,8]tricosa-1(21),11,13,15(23),18(22),19-hexaene-10,16,16-trione]
- Ent. A Max Activity (Table 9): +++ (+++ is >60%)
- EC50 (Table 9): < 1 µM
